Data: US20150335657A1, “Methods for Modulating Sirtuin Enzymes” (The Trustees of Princeton University, priority 2014, published 2015)

Columns and labels:
[1] = Tetrazolium-based cell viability assay (cytotoxicity); details: human
[2] = target: T1, SIRT6 (Homo sapiens, UniProt Q8N6T7); assay: Sirtuin deacetylase enzyme activity assay (Cayman Chemical), compound screen; assay type: biochemical; details: compound at 50 μM; Z-score of change in fluorescent signal; + increase, − decrease
T1 construct: purchased Cayman Chemical
T1 sequence (Q8N6T7 whole entry): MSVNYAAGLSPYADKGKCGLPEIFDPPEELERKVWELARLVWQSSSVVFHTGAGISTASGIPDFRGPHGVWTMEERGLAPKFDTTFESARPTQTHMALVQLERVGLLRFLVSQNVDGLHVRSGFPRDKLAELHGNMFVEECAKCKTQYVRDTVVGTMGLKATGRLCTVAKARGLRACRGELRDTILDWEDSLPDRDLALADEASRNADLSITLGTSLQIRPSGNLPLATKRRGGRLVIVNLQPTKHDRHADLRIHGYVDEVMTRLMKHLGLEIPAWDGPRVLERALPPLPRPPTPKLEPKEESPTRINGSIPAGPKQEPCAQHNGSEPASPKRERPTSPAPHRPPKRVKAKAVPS
Text: (§1) Sirtuins have been identified as innate viral restriction factors and it has been previously shown that drugs that modulate the activity of these enzymes block the production of multiple viruses in culture (see, e.g., WO 2012/106509). Sirtuins are NAD-dependent enzymes that regulate the activity of target proteins by post-translational modifications and thereby control key cellular events (see, e.g., Haigis and Sinclair (2010) Ann Rev Pathol Mech Dis 5:253-95). SIRT1, SIRT2, SIRT3 and SIRT6 have shown a detectable deacetylase activity in well-established biochemical assays that utilize recombinant SIRT1, SIRT2, SIRT3, and SIRT6 enzymes and fluorophore-conjugated acetyl-peptides. As described in the Examples below, the deacetylase activity of these sirtuins were used as a surrogate to identify compounds having broad-range antiviral activity.
(§2) A publically disclosed, small molecule library consisting of approximately 13,000 compounds was screened using a commercially available (Cayman Chemical) enzyme activity assay. Deacetylase activity of sirtuins SIRT1, SIRT2, SIRT3, and SIRT6 was used as a surrogate to identify compounds with the potential for having broad-range antiviral activity. The compounds were tested at a single concentration (50 μM) in microtiter plates and their activity against the four sirtuins was recorded as a change in fluorescent signal intensity. […] Activation of sirtuin activity generated positive Z-scores and inhibition of sirtuin activity produced negative Z-scores.

[3] = target: T2, SIRT3 (Homo sapiens, UniProt Q9NTG7); assay: as above; assay type: biochemical; details: compound at 50 μM; Z-score of change in fluorescent signal; + increase, − decrease
T2 construct: purchased Cayman Chemical
T2 sequence (Q9NTG7 1-399): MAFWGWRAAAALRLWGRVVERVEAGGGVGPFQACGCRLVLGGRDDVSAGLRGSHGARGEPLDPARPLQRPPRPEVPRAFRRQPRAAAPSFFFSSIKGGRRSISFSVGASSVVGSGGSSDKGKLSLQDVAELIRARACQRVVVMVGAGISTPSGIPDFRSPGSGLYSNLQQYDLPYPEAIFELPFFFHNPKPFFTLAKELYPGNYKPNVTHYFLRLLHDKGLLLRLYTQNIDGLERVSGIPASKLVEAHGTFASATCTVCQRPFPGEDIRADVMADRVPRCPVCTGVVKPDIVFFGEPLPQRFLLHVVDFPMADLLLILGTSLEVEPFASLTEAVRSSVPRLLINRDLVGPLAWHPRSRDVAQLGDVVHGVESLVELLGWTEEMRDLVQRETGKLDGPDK
Text: as §1, §2

[4] = target: T3, SIRT1 (Homo sapiens, UniProt Q96EB6); assay: as above; assay type: biochemical; details: compound at 50 μM; Z-score of change in fluorescent signal; + increase, − decrease
T3 construct: purchased Cayman Chemical
T3 sequence (Q96EB6 1-747): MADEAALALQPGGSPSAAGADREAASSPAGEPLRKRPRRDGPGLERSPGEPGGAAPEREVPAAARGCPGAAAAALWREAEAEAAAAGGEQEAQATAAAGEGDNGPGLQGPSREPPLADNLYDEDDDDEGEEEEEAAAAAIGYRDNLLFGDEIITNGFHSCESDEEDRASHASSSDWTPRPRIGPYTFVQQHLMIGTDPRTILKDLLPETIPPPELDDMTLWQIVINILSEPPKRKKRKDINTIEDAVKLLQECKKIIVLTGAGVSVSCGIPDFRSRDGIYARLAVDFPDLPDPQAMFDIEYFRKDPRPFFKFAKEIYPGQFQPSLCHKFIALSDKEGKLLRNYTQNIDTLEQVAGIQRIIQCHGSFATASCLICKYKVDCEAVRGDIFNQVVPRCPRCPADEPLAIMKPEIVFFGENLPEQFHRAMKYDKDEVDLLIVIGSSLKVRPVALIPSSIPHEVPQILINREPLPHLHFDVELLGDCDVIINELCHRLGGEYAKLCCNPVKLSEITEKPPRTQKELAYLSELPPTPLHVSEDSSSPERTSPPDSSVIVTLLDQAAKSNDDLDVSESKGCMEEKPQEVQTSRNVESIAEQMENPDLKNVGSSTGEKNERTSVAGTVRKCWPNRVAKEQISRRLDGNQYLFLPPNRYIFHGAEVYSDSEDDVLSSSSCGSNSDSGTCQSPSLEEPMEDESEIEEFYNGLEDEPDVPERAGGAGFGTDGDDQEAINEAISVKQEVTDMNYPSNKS
Text: as §1, §2

[5] = target: T4, SIRT2 (Homo sapiens, UniProt Q8IXJ6); assay: as above; assay type: biochemical; details: compound at 50 μM; Z-score of change in fluorescent signal; + increase, − decrease
T4 construct: purchased Cayman Chemical
T4 sequence (Q8IXJ6 1-389): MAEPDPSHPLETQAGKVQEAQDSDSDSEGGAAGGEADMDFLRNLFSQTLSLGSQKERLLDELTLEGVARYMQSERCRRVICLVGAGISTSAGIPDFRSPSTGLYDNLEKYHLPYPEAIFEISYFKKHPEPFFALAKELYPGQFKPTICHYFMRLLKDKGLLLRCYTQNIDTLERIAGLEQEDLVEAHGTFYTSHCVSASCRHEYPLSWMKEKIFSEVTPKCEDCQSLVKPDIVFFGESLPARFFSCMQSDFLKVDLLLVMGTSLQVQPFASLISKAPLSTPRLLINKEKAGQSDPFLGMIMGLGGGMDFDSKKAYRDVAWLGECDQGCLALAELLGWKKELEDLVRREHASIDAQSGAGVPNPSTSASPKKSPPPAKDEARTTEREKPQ
Text: as §1, §2

[6] = tested on: human cytomegalovirus (HCMV) AD169 strain; assay: Antiviral activity against HCMV in MRC5 fibroblasts (virus yield, fluorescent focus assay); assay type: cell-based; details: Human betaherpesvirus 5, HCMV AD169, 1 infectious unit/cell, treated 2 h after infection, virus in medium at 96 h

Row | SMILES | CC50 at 96 h [1] [µM] | SIRT6 (change in sirtuin deacetylase activity, Z-score class) [2] | SIRT3 (change in sirtuin deacetylase activity, Z-score class) [3] | SIRT1 (change in sirtuin deacetylase activity, Z-score class) [4] | SIRT2 (change in sirtuin deacetylase activity, Z-score class) [5] | IC50 [6] [µM] | IC90 [6] [µM]
1 | CC(c1cnc2ccccc2c1)C(F)C1N(Cc2ccccc2)C(=O)c2cccnc2N1C (centres unmarked) | > 50 | +++ (Z-score ≧ 3 = +++) | +++ (Z-score ≧ 3 = +++) | +++ (Z-score ≧ 3 = +++) | +++ (Z-score ≧ 3 = +++) | 1.74 | 16.1
2 | CC(c1ccccc1Cl)C1CN(C2CCC(O)CC2)S(=O)(=O)c2c(F)cccc2O1 (centres unmarked) | > 50 | +++ (Z-score ≧ 3 = +++) | na (−2 ≦ Z-score < 2 = no activity (na)) | na (−2 ≦ Z-score < 2 = no activity (na)) | na (−2 ≦ Z-score < 2 = no activity (na)) | 2.33 | 31.3
3 | CC(c1ccc2nccnc2c1)c1cnc(N2CCc3ccccc3C2)s1 (centres unmarked) | > 50 | na (−2 ≦ Z-score < 2 = no activity (na)) | na (−2 ≦ Z-score < 2 = no activity (na)) | −− (−3 < Z-score ≦ −2 = −−) | −− (−3 < Z-score ≦ −2 = −−) | 4.58 | 5.95
4 | CC(c1cnc2ccccc2c1)C(F)CNc1cnc2ccccc2c1 (centres unmarked) | > 50 | +++ (Z-score ≧ 3 = +++) | na (−2 ≦ Z-score < 2 = no activity (na)) | na (−2 ≦ Z-score < 2 = no activity (na)) | na (−2 ≦ Z-score < 2 = no activity (na)) | 6.89 | 17.6
5 | CCOc1cc(C)n(C(CNc2cnc3ccccc3c2)C(C)c2cccnc2C)n1 (centres unmarked) | > 50 | +++ (Z-score ≧ 3 = +++) | +++ (Z-score ≧ 3 = +++) | ++ (2 ≦ Z-score < 3 = ++) | ++ (2 ≦ Z-score < 3 = ++) | 8.26 | 33.9
6 | Cc1cc(-c2ccccc2)nn1C1CN(Cc2cccc(C(F)(F)F)c2)C(=O)C1C(C)C (centres unmarked) | 25 to 50 | ++ (2 ≦ Z-score < 3 = ++) | na (−2 ≦ Z-score < 2 = no activity (na)) | ++ (2 ≦ Z-score < 3 = ++) | na (−2 ≦ Z-score < 2 = no activity (na)) | 8.43 | 18.8
7 | CCOc1cc(C(C)C)n(C(CNc2cnc3ccccc3c2)C(C)c2cccnc2C)n1 (centres unmarked) | > 50 | +++ (Z-score ≧ 3 = +++) | +++ (Z-score ≧ 3 = +++) | +++ (Z-score ≧ 3 = +++) | na (−2 ≦ Z-score < 2 = no activity (na)) | 9.32 | 41.3
8 | CC(c1ccncc1)C(O)Cn1cc(-c2cc(Cl)cnc2N)nn1 (centres unmarked) | > 50 | +++ (Z-score ≧ 3 = +++) | ++ (2 ≦ Z-score < 3 = ++) | +++ (Z-score ≧ 3 = +++) | na (−2 ≦ Z-score < 2 = no activity (na)) | 9.71 | 33.8
9 | CCCN1CC(C(C)c2ccccc2OC)N(c2cccnc2)C1=O (centres unmarked) | > 50 | +++ (Z-score ≧ 3 = +++) | na (−2 ≦ Z-score < 2 = no activity (na)) | na (−2 ≦ Z-score < 2 = no activity (na)) | na (−2 ≦ Z-score < 2 = no activity (na)) | 9.91 | 32.2
10 | CNC(=O)c1cccc(CN(CCC(C)C(C)C)S(=O)(=O)c2c(C)noc2C)c1 (centres unmarked) | 25 to 50 | +++ (Z-score ≧ 3 = +++) | na (−2 ≦ Z-score < 2 = no activity (na)) | na (−2 ≦ Z-score < 2 = no activity (na)) | na (−2 ≦ Z-score < 2 = no activity (na)) | 10.2 | 32.8
11 | Cc1nn(C2CN(CCn3ccnc3)C(=O)C2c2ccccc2)c(C)c1C (centres unmarked) | > 50 | na (−2 ≦ Z-score < 2 = no activity (na)) | −−− (Z-score ≦ −3 = −−−) | −−− (Z-score ≦ −3 = −−−) | −−− (Z-score ≦ −3 = −−−) | 11 | 38.5
12 | CNC(=O)c1cccc(CN(CCC(C)C(C)C)S(=O)(=O)c2cn(C)cn2)c1 (centres unmarked) | > 50 | na (−2 ≦ Z-score < 2 = no activity (na)) | na (−2 ≦ Z-score < 2 = no activity (na)) | na (−2 ≦ Z-score < 2 = no activity (na)) | ++ (2 ≦ Z-score < 3 = ++) | 13.4 | 41.8
13 | CC(c1ccc(F)cc1)C(O)Cn1cc(-c2cc(Cl)cnc2N)nn1 (centres unmarked) | > 50 | ++ (2 ≦ Z-score < 3 = ++) | na (−2 ≦ Z-score < 2 = no activity (na)) | +++ (Z-score ≧ 3 = +++) | na (−2 ≦ Z-score < 2 = no activity (na)) | 15.1 | 35.6
14 | Cc1ccccc1C(C)C(CO)NC(=O)c1cn(C)cn1 (centres unmarked) | > 50 | −− (−3 < Z-score ≦ −2 = −−) | na (−2 ≦ Z-score < 2 = no activity (na)) | −−− (Z-score ≦ −3 = −−−) | −−− (Z-score ≦ −3 = −−−) | 15.8 | 41.9
